In patent publication US20110104301A1, “METHODS OF REDUCING PAIN AND INFLAMMATION” (Georgetown University, A Congressionally Chartered …, priority 2008, published 2011):

Assays:
[1] = test system: AITC-sensitive DRG neurons; experiment: Voltage- and current-clamp of DRG sensory neurons; assay type: cell-based, mouse; details: 10 of 11 cells
Description: Electrophysiology. HEK 293F cells were transfected with rat TRPV1, TRPA1, and TRPM8 (gift of David Julius, University of California, San Francisco). Dorsal root ganglia were cultured from adult mice (C57B16/J wild type and TRPV1-null, and mixed B6/129 background TRPA1-null) in Neurobasal +2% B-27 medium (Invitrogen), 0.1% L-glutamine and 1% penicillin/streptomycin. Whole-cell and single-channel patch-clamp recordings were performed by using an EPC8 amplifier (HEKA Electronics). For whole-cell and excised patch recordings the bath solution contained 140 mMNaCl, 4 mMKCl, 1 mMMgCl2, 1.2 mMCaCl2, 10 mMHepes, 10 mM glucose, pH 7.3. For cell-attached experiments, NaCl was replaced with KCl in the bath solution. The pipette solution contained 140 mM NaCl or KCl, 10 mM Hepes, 5 mM EGTA, pH 7.3. For neuronal recording NaCl was replaced with K-gluconate (plus 1 mMATP, 0.2 mM GTP). Solutions were applied via a gravity-fed system. Separate outlets were used to apply capsaicin and AITC solutions to avoid contamination. Voltage-dependent properties were measured as described in Matt and Ahern, J. Physiol. 585:469-482 (2007). Current-voltage measurements comprised a 200-ms ramp from −150 mV to +200 mV. The baseline currents under control conditions were subtracted. For cell-attached experiments, peak amplitudes were measured from all-points histograms, and open probability was measured as NPo>750 ms. Defolliculated Xenopus laevis oocytes were injected with ≈10 ng of hTRPA1 (gift of Ardem Patapoutian, The Scripps Research Institute, La Jolla, Calif.). Oocytes were placed in a Perspex chamber and continuously superfused (5 ml min^−1) with Ca^2+-free solution containing 100 mM NaCl, 2.5 mM KCl, 5 mM Hepes, 1 mM MgC12 and titrated to pH 7.3 with ˜5 mM NaOH.

[2] = target: T1, Drosophila TRPA1 (Drosophila melanogaster, UniProt Q7Z020); experiment: Current-voltage recordings in dTRPA1-expressing HEK293 cells; assay type: cell-based; details: desflurane at concentrations up to 3 mM
T1 construct: expressed in transfected cells; host or cells: HEK293
T1 sequence (Q7Z020 1-1197): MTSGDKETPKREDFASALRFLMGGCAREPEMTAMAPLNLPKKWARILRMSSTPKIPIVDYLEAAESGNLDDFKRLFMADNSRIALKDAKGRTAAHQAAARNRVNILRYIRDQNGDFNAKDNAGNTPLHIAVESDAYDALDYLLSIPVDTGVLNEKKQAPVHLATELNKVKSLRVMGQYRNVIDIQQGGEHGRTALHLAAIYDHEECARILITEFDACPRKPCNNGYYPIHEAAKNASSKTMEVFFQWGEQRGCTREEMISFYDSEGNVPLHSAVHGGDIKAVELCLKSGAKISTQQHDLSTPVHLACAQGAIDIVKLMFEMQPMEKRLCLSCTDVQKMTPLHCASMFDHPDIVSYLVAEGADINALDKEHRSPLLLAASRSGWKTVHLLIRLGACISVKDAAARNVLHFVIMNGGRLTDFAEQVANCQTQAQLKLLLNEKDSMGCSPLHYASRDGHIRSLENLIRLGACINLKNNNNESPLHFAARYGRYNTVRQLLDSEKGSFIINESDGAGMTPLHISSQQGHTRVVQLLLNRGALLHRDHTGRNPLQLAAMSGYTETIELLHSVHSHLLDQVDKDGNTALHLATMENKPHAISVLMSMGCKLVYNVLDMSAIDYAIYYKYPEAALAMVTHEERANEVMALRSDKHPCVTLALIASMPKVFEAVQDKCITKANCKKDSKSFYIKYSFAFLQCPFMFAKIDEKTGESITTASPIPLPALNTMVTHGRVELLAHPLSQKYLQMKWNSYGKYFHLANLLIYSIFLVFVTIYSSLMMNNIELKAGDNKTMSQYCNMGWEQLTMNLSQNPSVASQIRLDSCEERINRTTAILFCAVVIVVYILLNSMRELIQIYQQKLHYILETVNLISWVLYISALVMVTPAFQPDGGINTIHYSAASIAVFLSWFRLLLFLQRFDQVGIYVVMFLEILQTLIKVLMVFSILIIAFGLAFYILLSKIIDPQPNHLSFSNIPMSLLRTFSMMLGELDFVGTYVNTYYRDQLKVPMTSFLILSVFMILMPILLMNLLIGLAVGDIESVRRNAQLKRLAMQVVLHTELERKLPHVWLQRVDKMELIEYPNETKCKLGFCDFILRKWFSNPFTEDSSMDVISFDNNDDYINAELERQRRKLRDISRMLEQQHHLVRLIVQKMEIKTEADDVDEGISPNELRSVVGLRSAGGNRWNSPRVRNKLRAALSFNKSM
Description: (§1) A genetic approach was used to identify critical sites in TRPA1 and TRPV1 required for activation by general anesthetics. Drosophila TRPA1 is insensitive to desflurane (at concentrations up to 3 mM). […] Note that dTRPA1 is insensitive to AITC. Next, several chimeric TRP proteins containing dTRPA1 (unresponsive to desflurane) and mTRPA1 were tested. For the dTRPA1-mN chimera, the mouse 720 amino acid N-terminus was exchanged for the drosophila N-terminus. The N-terminal domain contains essential binding sites for AITC, and therefore studying this chimera tests an important role for the N-terminus in anesthetic-sensing. […] The mTRPA1-dTM5 construct was then studied, which is the mouse protein containing the fifth transmembrane domain of the drosophila protein.

[3] = target: T2, dTRPA1-mN chimera (UniProt Q7Z020+Q8BLA8); experiment: Current-voltage recordings of chimera dTRPA1-mN; assay type: cell-based; details: mouse N-terminus substituted
T2 construct: mouse TRPA1 N-terminus (720 amino acids); expressed in transfected cells
T2 sequence (Q8BLA8+Q7Z020 fused, change not shown): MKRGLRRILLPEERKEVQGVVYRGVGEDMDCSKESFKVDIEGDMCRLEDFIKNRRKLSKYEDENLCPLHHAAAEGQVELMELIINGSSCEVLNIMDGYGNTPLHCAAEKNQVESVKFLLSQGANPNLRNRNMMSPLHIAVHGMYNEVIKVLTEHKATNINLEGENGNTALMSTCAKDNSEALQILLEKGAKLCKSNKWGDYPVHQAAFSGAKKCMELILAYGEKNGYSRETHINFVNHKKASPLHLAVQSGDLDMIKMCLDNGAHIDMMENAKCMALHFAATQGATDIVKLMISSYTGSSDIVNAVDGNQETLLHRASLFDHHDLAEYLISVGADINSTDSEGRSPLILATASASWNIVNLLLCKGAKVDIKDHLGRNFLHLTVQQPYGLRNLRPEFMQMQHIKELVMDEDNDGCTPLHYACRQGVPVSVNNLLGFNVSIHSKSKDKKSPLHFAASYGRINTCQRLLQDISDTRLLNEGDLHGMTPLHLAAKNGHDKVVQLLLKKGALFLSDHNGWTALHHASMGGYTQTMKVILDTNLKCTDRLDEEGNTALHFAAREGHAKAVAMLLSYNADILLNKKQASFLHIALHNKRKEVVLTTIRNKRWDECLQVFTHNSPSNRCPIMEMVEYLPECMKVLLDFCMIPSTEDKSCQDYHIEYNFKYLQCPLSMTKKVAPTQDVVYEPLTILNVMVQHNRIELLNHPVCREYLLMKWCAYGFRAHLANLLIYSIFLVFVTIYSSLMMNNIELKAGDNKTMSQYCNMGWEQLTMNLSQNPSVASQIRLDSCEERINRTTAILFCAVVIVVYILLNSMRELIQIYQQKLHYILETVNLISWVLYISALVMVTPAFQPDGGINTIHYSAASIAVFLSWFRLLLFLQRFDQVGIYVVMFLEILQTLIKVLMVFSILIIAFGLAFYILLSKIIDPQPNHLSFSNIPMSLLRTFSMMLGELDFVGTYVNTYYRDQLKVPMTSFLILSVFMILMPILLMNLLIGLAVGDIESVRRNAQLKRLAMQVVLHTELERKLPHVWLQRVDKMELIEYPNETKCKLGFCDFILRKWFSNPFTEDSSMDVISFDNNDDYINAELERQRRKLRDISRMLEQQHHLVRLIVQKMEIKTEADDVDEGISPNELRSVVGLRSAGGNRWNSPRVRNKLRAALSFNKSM
Description: as §1

[4] = target: TRPV1 (Rattus norvegicus, UniProt O35433); experiment: Voltage-clamp of TRPV1-expressing Xenopus oocytes (capsaicin, protons, heat); assay type: cell-based; details: PDBu 200 nM, 3 minutes
Chain of TRPV1 (O35433 whole entry, the tested form may be a part): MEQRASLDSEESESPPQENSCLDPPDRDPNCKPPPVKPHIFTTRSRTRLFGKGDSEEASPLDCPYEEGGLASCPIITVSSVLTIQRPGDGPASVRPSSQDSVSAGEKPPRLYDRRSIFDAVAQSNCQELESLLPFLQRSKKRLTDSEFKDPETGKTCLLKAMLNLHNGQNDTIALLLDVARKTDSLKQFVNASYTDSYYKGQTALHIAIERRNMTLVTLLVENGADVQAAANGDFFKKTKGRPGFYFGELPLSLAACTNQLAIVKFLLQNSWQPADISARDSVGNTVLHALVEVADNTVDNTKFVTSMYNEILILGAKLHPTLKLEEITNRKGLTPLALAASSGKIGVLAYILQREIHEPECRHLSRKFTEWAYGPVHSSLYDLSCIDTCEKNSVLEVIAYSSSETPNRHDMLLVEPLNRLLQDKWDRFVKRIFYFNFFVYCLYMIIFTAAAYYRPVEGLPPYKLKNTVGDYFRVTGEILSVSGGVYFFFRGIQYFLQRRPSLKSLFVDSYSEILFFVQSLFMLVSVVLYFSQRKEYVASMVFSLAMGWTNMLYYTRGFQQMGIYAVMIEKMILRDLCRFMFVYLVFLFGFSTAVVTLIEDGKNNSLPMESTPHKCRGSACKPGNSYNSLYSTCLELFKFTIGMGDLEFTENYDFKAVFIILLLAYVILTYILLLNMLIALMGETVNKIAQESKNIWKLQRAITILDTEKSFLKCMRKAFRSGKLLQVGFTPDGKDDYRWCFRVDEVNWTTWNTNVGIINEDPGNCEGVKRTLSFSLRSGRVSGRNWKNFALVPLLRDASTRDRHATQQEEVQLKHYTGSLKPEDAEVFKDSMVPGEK
Description: Oocyte electrophysiology. […] Oocytes were placed in a Perspex chamber and continuously superfused (5 ml min-1) with Ca2+-free solution containing (in mM): 100 NaCl, 2.5 KCl, 5 HEPES, 1 MgCl2 and titrated to pH 7.3 with ˜5 mM NaOH. For solutions <pH 6.0, HEPES was replaced with either 5 mM MES or 5 mM sodium citrate. Oocytes were routinely voltage-clamped at −60 mV at 22-23° C. For heat activation, bath temperature was raised from ˜22-50° C. over ˜100 s using an in-line solution heater (Warner Instruments). The temperature was continuously monitored with a probe placed within 2 mm of the oocyte. The temperature-activation threshold was defined as a 20% increase in current above baseline.
Volatile general anesthetics. Saturated stock solutions of volatile general anesthetics (VGAs) were prepared in gas-tight bottles by dissolving excess anesthetic agents in bath solutions and stirring vigorously overnight. From these stock solutions fresh dilutions were made up every 40-60 minutes. Concentrations of volatile anesthetics in the bath solutions were verified using a modified head-space gas chromatography method. The gas chromatograph (Carlo Erba, Milan, Italy) was equipped with a flame ionization detector (FID) and mass spectrometer. The carrier gas was hydrogen (60 kPa column head pressure) and the fused silica capillary column, coated with polysiloxane SE-30, was 25 m×0.25 mm. Injector temperature was 250° C., FID temperature was 300° C. and the oven was maintained at 90° C. Standards were prepared from a mixture of halothane, isoflurane, and sevoflurane dissolved in acetonitrile with enflurane as an internal standard.

[5] = target: T3, mutant S502A/S800A TRPV1 (Rattus norvegicus, UniProt O35433, S502A/S800A); experiment: Heat activation in oocytes expressing mutant S502A/S800A TRPV1; assay type: cell-based
T3 construct: expressed in transfected cells; host or cells: Xenopus laevis oocytes (cRNA injection)
T3 sequence (O35433 whole entry S502A/S800A): as the sequence (O35433 whole entry, the tested form may be a part) above, with S502A, S800A counted along it
Description: Oocyte electrophysiology. […] Oocytes were placed in a Perspex chamber and continuously superfused (5 ml min-1) with Ca2+-free solution containing (in mM): 100 NaCl, 2.5 KCl, 5 HEPES, 1 MgCl2 and titrated to pH 7.3 with 5 mM NaOH. For solutions <pH 6.0, HEPES was replaced with either 5 mM MES or 5 mM sodium citrate. Oocytes were routinely voltage-clamped at -60 mV at 22-23° C.

**Q.** With `C=CCN=C=S` [AITC] as the compound, how does the “Isoflurane-responsive neurons also sensitive to AITC” value [1] read?
**A.** 91%

**Q.** What about the “Sensitivity of Drosophila TRPA1” value [2] of the same compound?
**A.** insensitive

**Q.** What about the “Response of dTRPA1-mN chimera” value [3] of the same compound?
**A.** conferred AITC-sensitivity

**Q.** Which “Temperature threshold of TRPV1 heat activation, PDBu alone” value [4] does the source give for `CCCC(=O)O[C@@H]1[C@@H](C)[C@@]2(O)[C@@H](C=C(CO)C[C@]3(O)C(=O)C(C)=C[C@@H]23)[C@@H]2C(C)(C)[C@]12OC(=O)CCC` [PDBu, phorbol 12, 13 dibutyrate] here?
**A.** 39.3±2.3 °C

**Q.** And the “Effect of PDBu in oocytes expressing mutant TRPV1” value [5]?
**A.** did not produce a significant effect
